Laboratory results published in US9086425B2, “Carbamylated proteins and risk of cardiovascular disease” (The Cleveland Clinic Foundation, priority 2007, dated 2015).

How the values were obtained:
scavenger receptor SR-A1 = molecular target: T1, scavenger receptor SR-A1 (Mus musculus, UniProt P30204); assay: Carbamylated LDL binding studies with SR-A1 transfected cells / SR-A1 inhibitor; type: cell-based, murine; details: data not shown
T1 construct: expressed in transfected cells; host or cells: CHO cells, stably transfected
T1 sequence (P30204 1-458): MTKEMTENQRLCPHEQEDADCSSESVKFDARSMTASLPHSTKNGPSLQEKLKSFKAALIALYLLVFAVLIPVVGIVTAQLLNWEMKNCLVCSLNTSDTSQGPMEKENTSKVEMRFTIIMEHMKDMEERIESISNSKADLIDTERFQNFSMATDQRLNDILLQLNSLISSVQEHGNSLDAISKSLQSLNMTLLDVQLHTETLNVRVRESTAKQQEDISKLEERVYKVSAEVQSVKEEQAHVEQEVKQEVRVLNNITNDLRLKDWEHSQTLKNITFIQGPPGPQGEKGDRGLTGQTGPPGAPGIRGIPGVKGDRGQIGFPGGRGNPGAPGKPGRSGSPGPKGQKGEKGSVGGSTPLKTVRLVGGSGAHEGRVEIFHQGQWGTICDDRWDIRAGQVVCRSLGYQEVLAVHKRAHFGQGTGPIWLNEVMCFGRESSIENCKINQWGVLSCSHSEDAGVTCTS

[1] = tested on: aortic smooth muscle cells (both human and bovine); assay: Aortic smooth muscle cell proliferation; type: cell-based; details: SR-A1 inhibitor present in culture media
Text: 1,1′-dioctadecyl-3,3,3′,3′-tetramethylyindocarbocyanine perchlorate (DiI) was obtained from Molecular Probes (Eugene, Oreg.). Organic solvents were obtained from Fisher Scientific Co. (Pittsburgh, Pa.). Caspase-3/7 assay kit (Lot #220150) was purchased from Promega (Madison, Wis.) and cell proliferation ELISA, BrdU (colorimetric) kit (Lot #11647229001) was from Roche (Indianapolis, Ind.). All other reagents and materials were obtained from Sigma Chemical Co. (St. Louis, Mo.) unless otherwise indicated. Protein content was determined by the Markwell-modified Lowry protein assay^44. Human LDL and HDL were isolated from whole blood of healthy volunteers by established methods^45. Human myeloperoxidase (MPO) (donor: hydrogen peroxide, oxidoreductase, EC 1.11.1.7), NO2-LDL and AcLDL were prepared as described in Podrez et al^14.
In a separate series of studies, we therefore examined the impact of MPO-catalyzed lipoprotein carbamylation on these processes.

homocitrulline levels = assay: Effect of simvastatin on plasma levels of homocitrulline (randomized placebo-controlled study); type: in vivo, human; details: 6 weeks of treatment
Protocol: This study was intended to evaluate the effect of statin therapy on homocitrulline levels. Specimens came from archival materials from a randomized, double-blind, parallel-group, 4-arm, placebo-controlled, multi-center study conducted in 1997. Prior to randomization, subjects underwent a 4-week diet/placebo run-in period. Eligible patients were then randomized to 1 of 4 treatments (ratio 1:1:1:1): placebo, simvastatin 20, 40, or 80 mg, and received 6 weeks of treatment. One hundred and eighty eight out of 195 enrolled men and women completed the study. Subjects were required to have elevated TG (300 to 900 mg/dL), and many had comorbidities associated with the metabolic syndrome; however, though those with morbid obesity, uncontrolled hypertension, or severe hyperlipidemia were excluded. Archived serum and/or plasma that were drawn predose on Day 1 and on Day 42 were used in this analysis.

inhibition of specific binding of carbamylated LDL (scavenger receptor SR-A1) | Molecule | effect on proliferation induced by carbamylated LDL [1] | Median % Change (SD) of homocitrulline (homocitrulline levels; simvastatin 20 mg, Day 42 vs predose Day 1, archived serum and/or plasma) | Median % Change (SD) of homocitrulline (homocitrulline levels; simvastatin 40 mg, Day 42 vs predose Day 1, archived serum and/or plasma) | Median % Change (SD) of homocitrulline (homocitrulline levels; simvastatin 80 mg, Day 42 vs predose Day 1, archived serum and/or plasma) | Median % Change (SD) of homocitrulline (homocitrulline levels; simvastatin combined (20, 40, 80 mg), Day 42 vs predose Day 1)
over 80% | fucoidin | markedly suppressed | – | – | – | –
– | CCC(C)(C)C(=O)O[C@H]1C[C@@H](C)C=C2C=C[C@H](C)[C@H](CC[C@@H]3C[C@@H](O)CC(=O)O3)[C@H]21 [Simvastatin, simvastatin] | – | −100.0 (102.67) % | −100.0 (67.77) % | −63.44 (89.63) % | −100.0 (84.03) %
